The values below come from US9586958B2, “Prodrug derivatives of substituted triazolopyridines” (BAYER PHARMA AKTIENGESELLSCHAFT, priority 2013, dated 2017).

The nature of data set [1]: Stability in buffer at pH 7.4 (HPLC). The data set is classed as physicochemical. To be noted: buffer pH 7.4, 37° C. As for the experimental part: 0.3 mg of the test compound are solved in 0.1 ml dimethylsulfoxide and 0.4 ml acetonitrile. For complete dissolution the HPLC vial with the sample solution is sonified for about 20 seconds. Then 1.0 ml of the buffer solution is added, and the sample is again treated in the ultrasonic bath.
90 g of sodium chloride, 13.61 g of potassium dihydrogen phosphate and 83.35 g of 1 M sodium hydroxide solution are made up to 1 liter with Millipore water and then diluted 1:10.
10 μl portions of the sample solution are analysed by HPLC to determine the amount of the test compound over a period of 24 hours at 37° C. The peak areas in percentage are used for quantification.
Agilent 1100 with DAD (G1315B), binary pump (G1312A), autosampler (G1329A), column oven (G1316A), thermostat (G1330B); column: Kromasil 100 C18, 250 mm×4 mm, 5 μm; column temperature: 37° C.; eluent A: water+5 ml of perchloric acid/liter, eluent B: acetonitrile.
The ratio of the peak areas (F) at different time points in relation to the peak areas at the starting time are shown in Table 2 for representative examples: […]

Data set [2] is described as follows: In vitro stability in rat plasma (HPLC detection). To be noted: 37° C. It counts as in vitro ADME. On the procedure: 1 mg of test compound is dissolved in 1.25 ml dimethylsulfoxide. Then 1.25 ml water are added. 0.5 ml of this sample solution are mixed with 0.5 ml heparinized and 37° C. warm plasma (wistar rat plasma or human plasma). A first sample (10 μl) is immediately taken for HPLC analysis. In the period up to 4 h after the start of incubation further 10 μl aliquots are taken after 30, 60, 90, 120 and 240 minutes and the amount of the test compound is determined.
Agilent 1100 with DAD (G1315A), binary pump (G1312A), autosampler (G1329A), column oven (G1316A), thermostat (G1330B); column: Kromasil 100 C18, 250 mm×4 mm, 5 μm; column temperature: 45° C.; eluent A: water+5 ml of perchloric acid/liter, eluent B: acetonitrile.

As to `COc1cc(S(C)(=O)=O)ccc1N(C(=O)OC(C)OC(=O)[C@@H](NC(=O)[C@@H](N)CCCCN)C(C)C)c1nc2ccc(-c3ccc(NC(=O)[C@H](C)c4ccc(F)cc4)cc3)cn2n1.Cl.Cl` (mixture of isomers) [Example 2.2, (1RS)-1-({[6-(4-{[(2R)-2-(4-fluorophenyl)propanoyl]amino}phenyl)[1,2,4]triazolo[1,5-α]pyridin-2-yl][2-methoxy-4-(methylsulfonyl)phenyl]carbamoyl}oxy)ethyl L-lysyl-L-valinate dihydrochloride], in data set [1], the “% Test Compound after 24 h [F(t = 24 h) × 100/F(t = 0 h)]” value (shortened to “% Test Compound after 24 h”) is listed as 0.0%. In data set [2], the “% Test Compound after 4 h [F(t = 24 h) × 100/F(t = 0 h)]” value (from here on “% Test Compound after 4 h”) is 5%. For `COc1cc(S(C)(=O)=O)ccc1N(C(=O)OC(C)OC(=O)[C@@H](NC(=O)[C@@H](N)C(C)C)C(C)C)c1nc2ccc(-c3ccc(NC(=O)[C@H](C)c4ccc(F)cc4)cc3)cn2n1.Cl` (mixture of isomers) [Example 2.4, (1RS)-1-({[6-(4-{[(2R)-2-(4-fluorophenyl)propanoyl]amino}phenyl)[1,2,4]triazolo[1,5-α]pyridin-2-yl][2-methoxy-4-(methylsulfonyl)phenyl]carbamoyl}oxy)ethyl L-valyl-L-valinate hydrochloride], in that order: 48% and 45%. For the compound `COc1cc(S(C)(=O)=O)ccc1N(C(=O)OC(C)OC(=O)[C@@H](N)C(C)C)c1nc2ccc(-c3ccc(NC(=O)[C@H](C)c4ccc(F)cc4)cc3)cn2n1.Cl` (mixture of isomers) [Example 3.1, (1RS)-1-({[6-(4-{[(2R)-2-(4-fluorophenyl)propanoyl]amino}phenyl)[1,2,4]triazolo[1,5-α]pyridin-2-yl][2-methoxy-4-(methylsulfonyl)phenyl]carbamoyl}oxy)ethyl L-valinate hydrochloride], the “% Test Compound after 24 h” value in data set [1] came to 0.0%. Also, in data set [2], the “% Test Compound after 4 h” value is recorded as 0.0%. With `COc1cc(S(C)(=O)=O)ccc1N(C(=O)OC(C)OC(=O)[C@@H](N)C(C)(C)C)c1nc2ccc(-c3ccc(NC(=O)[C@H](C)c4ccc(F)cc4)cc3)cn2n1.Cl` (mixture of isomers) [Example 3.2, (1RS)-1-({[6-(4-{[(2R)-2-(4-fluorophenyl)propanoyl]amino}phenyl)[1,2,4]triazolo[1,5-α]pyridin-2-yl][2-methoxy-4-(methylsulfonyl)phenyl]carbamoyl}oxy)ethyl 3-methyl-L-valinate hydrochloride], in data set [1], the “% Test Compound after 24 h” value turned out to be 0.0%. Moreover, in data set [2], the “% Test Compound after 4 h” value is 0.0%. Turning to `CC[C@H](C)[C@H](N)C(=O)OC(C)OC(=O)N(c1nc2ccc(-c3ccc(NC(=O)[C@H](C)c4ccc(F)cc4)cc3)cn2n1)c1ccc(S(C)(=O)=O)cc1OC.Cl` (mixture of isomers) [Example 3.5, (1RS)-1-({[6-(4-{[(2R)-2-(4-fluorophenyl)propanoyl]amino}phenyl)[1,2,4]triazolo[1,5-α]pyridin-2-yl][2-methoxy-4-(methylsulfonyl)phenyl]carbamoyl}oxy)ethyl-L-isoleucinate hydrochloride], the “% Test Compound after 4 h” value in data set [2] turned out to be 19%.

For the compound `COc1cc(S(C)(=O)=O)ccc1N(C(=O)OC(OC(=O)[C@@H](N)C(C)(C)C)C(C)C)c1nc2ccc(-c3ccc(NC(=O)[C@H](C)c4ccc(F)cc4)cc3)cn2n1.Cl` (mixture of isomers) [Example 5.1, (1RS)-1-({[6-(4-{[(2R)-2-(4-fluorophenyl)propanoyl]amino}phenyl)[1,2,4]triazolo[1,5-α]pyridin-2-yl][2-methoxy-4-(methylsulfonyl)phenyl]carbamoyl}oxy)-2-methylpropyl 3-methyl-L-valinate hydrochloride], the “% Test Compound after 24 h” value in data set [1] was determined as 21%. Moreover, the “% Test Compound after 4 h” value in data set [2] was determined as 19%. With `COc1cc(S(C)(=O)=O)ccc1N(C(=O)OC(OC(=O)[C@@H](N)C(C)C)C(C)C)c1nc2ccc(-c3ccc(NC(=O)[C@H](C)c4ccc(F)cc4)cc3)cn2n1.Cl` (mixture of isomers) [Example 5.4, (1RS)-1-({[6-(4-{[(2R)-2-(4-fluorophenyl)propanoyl]amino}phenyl)[1,2,4]triazolo[1,5-α]pyridin-2-yl][2-methoxy-4-(methylsulfonyl)phenyl]carbamoyl}oxy)-2-methylpropyl-L-valinate hydrochloride], in data set [1], the “% Test Compound after 24 h” value is listed as 17%. The “% Test Compound after 4 h” value in data set [2] worked out at 44%.

For the compound `COc1cc(S(C)(=O)=O)ccc1N(C(=O)OC(OC(=O)C(C)(C)N)C(C)C)c1nc2ccc(-c3ccc(NC(=O)[C@H](C)c4ccc(F)cc4)cc3)cn2n1.Cl` (mixture of isomers) [Example 5.5, (1RS)-1-({[6-(4-{[(2R)-2-(4-fluorophenyl)propanoyl]amino}phenyl)[1,2,4]triazolo[1,5-α]pyridin-2-yl][2-methoxy-4-(methylsulfonyl)phenyl]carbamoyl}oxy)-2-methylpropyl-2-methylalaninate hydrochloride], the “% Test Compound after 4 h” value in data set [2] was found to be 33%. With `CC[C@H](C)[C@H](N)C(=O)OC(C)OC(=O)N(c1nc2n(n1)CC(c1ccc(NC(=O)[C@H](C)c3ccc(F)cc3)cc1)C=C2)c1ccc(S(C)(=O)=O)cc1OC.Cl` (single isomer, unassigned) [Example 3.6, (1S or 1R)-1-({[6-(4-{[(2R)-2-(4-fluorophenyl)propanoyl]amino}phenyl)[1,2,4]triazolo[1,5-α]pyridin-2-yl][2-methoxy-4-(methylsulfonyl)phenyl]carbamoyl}oxy)ethyl-isoleucinate hydrochloride], the “% Test Compound after 24 h” value in data set [1] is 0.0%.

On to `CC[C@H](C)[C@H](N)C(=O)OC(C)OC(=O)N(c1nc2ccc(-c3ccc(NC(=O)[C@H](C)c4ccc(F)cc4)cc3)cn2n1)c1ccc(S(C)(=O)=O)cc1OC.Cl` (single isomer, unassigned) [Example 3.7, (1R or 1S)-1-({[6-(4-{[(2R)-2-(4-fluorophenyl)propanoyl]amino}phenyl)[1,2,4]triazolo[1,5-α]pyridin-2-yl][2-methoxy-4-(methylsulfonyl)phenyl]carbamoyl}oxy)ethyl-L-isoleucinate hydrochloride], for which the “% Test Compound after 24 h” value in data set [1] was 0.0%. For the compound `COc1cc(S(C)(=O)=O)ccc1N(C(=O)OCOC(=O)C1CCNCC1)c1nc2ccc(-c3ccc(NC(=O)[C@H](C)c4ccc(F)cc4)cc3)cn2n1.O=C(O)C(F)(F)F` [Example 1.1, ({[6-(4-{[(2R)-2-(4-fluorophenyl)propanoyl]amino}phenyl)[1,2,4]triazolo[1,5-α]pyridin-2-yl][2-methoxy-4-(methylsulfonyl)phenyl]carbamoyl}oxy)methyl piperidine-4-carboxylate trifluoroacetate], the “% Test Compound after 24 h” value in data set [1] (measured for formic acid salt) is 35.0 *) %. Regarding `COc1cc(S(C)(=O)=O)ccc1N(C(=O)OCOC(=O)[C@@H](N)CC(C)C)c1nc2ccc(-c3ccc(NC(=O)[C@H](C)c4ccc(F)cc4)cc3)cn2n1.Cl` [Example 1.3, ({[6-(4-{[(2R)-2-(4-fluorophenyl)propanoyl]amino}phenyl)[1,2,4]triazolo[1,5-α]pyridin-2-yl][2-methoxy-4-(methylsulfonyl)phenyl]carbamoyl}oxy)methyl L-leucinate hydrochloride], the “% Test Compound after 4 h” value in data set [2] turned out to be 0.0%. On the same count and under the same terms, then `COc1cc(S(C)(=O)=O)ccc1N(C(=O)OCOP(=O)(O)O)c1nc2ccc(-c3ccc(NC(=O)[C@H](C)c4ccc(F)cc4)cc3)cn2n1` [Example 1.6, (phosphonooxy)methyl [6-(4-{[(2R)-2-(4-fluorophenyl)propanoyl]amino}phenyl)[1,2,4]triazolo[1,5-α]pyridin-2-yl][2-methoxy-4-(methylsulfonyl)phenyl]carbamate], with 0.0%; and `CC(C)[C@H](N)C(=O)OCOC(=O)N(c1nc2ccc(-c3ccc(NC(=O)[C@H](C)c4ccc(F)cc4)cc3)cn2n1)c1ccc(S(C)(=O)=O)cc1OCC(F)(F)F.Cl` [Example 6.2, ({[6-(4-{[(2R)-2-(4-fluorophenyl)propanoyl]amino}phenyl)[1,2,4]triazolo[1,5-α]pyridin-2-yl][4-(methylsulfonyl)-2-(2,2,2-trifluoroethoxy)phenyl]carbamoyl}oxy)methyl L-valinate hydrochloride], with 6%. The same measure, in the same setting: then `CNCC(=O)N(c1nc2ccc(-c3ccc(NC(=O)[C@H](C)c4ccc(F)cc4)cc3)cn2n1)c1ccc(S(C)(=O)=O)cc1OC.O=C(O)C(F)(F)F` [Example 8.1, (2R)-2-(4-fluorophenyl)-N-[4-(2-{[2-methoxy-4-(methylsulfonyl)phenyl](N-methylglycyl)amino}[1,2,4]triazolo[1,5-α]pyridin-6-yl)phenyl]propanamide trifluoroacetate], with 57%.
